Data published in PubChem BioAssay AID1963434 (Molecular Pharmacology Branch, DTP, NCI, 2024).

System: 755483-174-R-J1-PDC complex spheroid growth, percent test/control
Assay: Anticancer human tumor 755483-174-R-J1-PDC patient-derived rhabdomyosarcoma cell line growth inhibition [Asc]
Conditions: for IC50: curve of first compound; for viability, T/C: stronger effect = lower value
Method in brief: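 Spheroid model: tumor line + HUVEC + hMSC. Single agents and combinations; top conc. at/near clinical Cmax (10 microM if undetermined), half-log dilutions. DMSO stocks at 800-fold test concentration.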

[1] = second compound 0.1 µM, first compound 0.0316 µM
[2] = second compound 0.1 µM, first compound 0.1 µM
[3] = second compound 0.1 µM, first compound 0.316 µM
[4] = second compound 0.1 µM, first compound 1 µM
[5] = second compound 0.1 µM, first compound 3.16 µM
[6] = second compound 0.1 µM, first compound 10 µM
[7] = second compound 0.316 µM, first compound 0.0316 µM
[8] = second compound 0.316 µM, first compound 0.1 µM
[9] = second compound 0.316 µM, first compound 0.316 µM
[10] = second compound 0.316 µM, first compound 1 µM
[11] = second compound 0.316 µM, first compound 3.16 µM
[12] = second compound 0.316 µM, first compound 10 µM
[13] = second compound 1 µM, first compound 0.0316 µM
[14] = second compound 1 µM, first compound 0.1 µM
[15] = second compound 1 µM, first compound 0.316 µM
[16] = second compound 1 µM, first compound 1 µM
[17] = second compound 1 µM, first compound 3.16 µM
[18] = second compound 1 µM, first compound 10 µM
[19] = second compound 3.16 µM, first compound 0.0316 µM
[20] = second compound 3.16 µM, first compound 0.1 µM
[21] = second compound 10 µM, first compound 0.0316 µM
[22] = second compound 10 µM, first compound 0.1 µM
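Note: spheroids exposed to compounds for seven days before readout.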

`C#Cc1c(F)ccc2cc(O)cc(-c3ncc4c(N5CC6CCC(C5)N6)nc(OCC56CCCN5CC(F)C6)nc4c3F)c12` (stereo not given) + CNC(C)C(=O)NC1CN(S(=O)(=O)c2cccc(S(=O)(=O)N3CCC4CCC(C(=O)NC(c5ccccc5)c5ccccc5)N4C(=O)C(NC(=O)C(C)NC)C3)c2)CCC2CCC(C(=O)NC(c3ccccc3)c3ccccc3)N2C1=O was tested, and the IC50 (second compound 0.01 µM) was < 31.6 nM, the IC50 (second compound 0.0316 µM) was < 31.6 nM and the IC50 (second compound 0.1 µM) was < 31.6 nM. The IC50 (second compound 0.316 µM) was < 31.6 nM, the IC50 (second compound 1 µM) was < 31.6 nM and the viability, T/C (second compound 0.01 µM, first compound 0.0316 µM) was 46.4%. It also gave a viability, T/C (second compound 0.01 µM, first compound 0.1 µM) of 44.1%, a viability, T/C (second compound 0.01 µM, first compound 0.316 µM) of 55.5% and a viability, T/C (second compound 0.01 µM, first compound 1 µM) of 54.6%. It also gave a viability, T/C (second compound 0.01 µM, first compound 3.16 µM) of 36.6%, a viability, T/C (second compound 0.01 µM, first compound 10 µM) of 2.18% and a viability, T/C (second compound 0.0316 µM, first compound 0.0316 µM) of 33.2%. It also gave a viability, T/C (second compound 0.0316 µM, first compound 0.1 µM) of 36%, a viability, T/C (second compound 0.0316 µM, first compound 0.316 µM) of 38.7% and a viability, T/C (second compound 0.0316 µM, first compound 1 µM) of 48.3%. For the same compound, the viability, T/C (second compound 0.0316 µM, first compound 3.16 µM) was 36.4%, the viability, T/C (second compound 0.0316 µM, first compound 10 µM) was 2.06% and the viability, T/C [1] was 35.9%. For the same compound, the viability, T/C [2] was 42.6%, the viability, T/C [3] was 54% and the viability, T/C [4] was 28.7%. The viability, T/C [5] was 24.8%, the viability, T/C [6] was 1.01% and the viability, T/C [7] was 32.1%. For the same compound, the viability, T/C [8] was 33.9%, the viability, T/C [9] was 30.9% and the viability, T/C [10] was 34.9%. For the same compound, the viability, T/C [11] was 13.9%, the viability, T/C [12] was 0.34% and the viability, T/C [13] was 17.1%. It also gave a viability, T/C [14] of 31.2%, a viability, T/C [15] of 31.7% and a viability, T/C [16] of 22.8%. It also gave a viability, T/C [17] of 10.5% and a viability, T/C [18] of 0.34%.

For `Cc1nc(N2CCC3(CC2)COC(C)C3N)c(CO)nc1Sc1ccnc(N)c1Cl` (stereo not given) + CNC(C)C(=O)NC1CN(S(=O)(=O)c2cccc(S(=O)(=O)N3CCC4CCC(C(=O)NC(c5ccccc5)c5ccccc5)N4C(=O)C(NC(=O)C(C)NC)C3)c2)CCC2CCC(C(=O)NC(c3ccccc3)c3ccccc3)N2C1=O, the IC50 (second compound 0.01 µM) was 103 nM, the IC50 (second compound 0.0316 µM) was < 9.49 nM and the IC50 (second compound 0.1 µM) was < 9.49 nM. The IC50 (second compound 0.316 µM) was < 9.49 nM, the IC50 (second compound 1 µM) was < 9.49 nM and the viability, T/C (second compound 0.01 µM, first compound 0.00949 µM) was 46.1%. The viability, T/C (second compound 0.01 µM, first compound 0.03 µM) was 57.3%, the viability, T/C (second compound 0.01 µM, first compound 0.0949 µM) was 50.5% and the viability, T/C (second compound 0.01 µM, first compound 0.3 µM) was 35.6%. The viability, T/C (second compound 0.01 µM, first compound 0.949 µM) was 23%, the viability, T/C (second compound 0.01 µM, first compound 3 µM) was 24.7% and the viability, T/C (second compound 0.0316 µM, first compound 0.00949 µM) was 41.4%. The viability, T/C (second compound 0.0316 µM, first compound 0.03 µM) was 45.6%, the viability, T/C (second compound 0.0316 µM, first compound 0.0949 µM) was 40.8% and the viability, T/C (second compound 0.0316 µM, first compound 0.3 µM) was 32.7%. It also gave a viability, T/C (second compound 0.0316 µM, first compound 0.949 µM) of 23.2%, a viability, T/C (second compound 0.0316 µM, first compound 3 µM) of 18.2% and a viability, T/C (second compound 0.1 µM, first compound 0.00949 µM) of 26.6%. The viability, T/C (second compound 0.1 µM, first compound 0.03 µM) was 45.9%, the viability, T/C (second compound 0.1 µM, first compound 0.0949 µM) was 20.3% and the viability, T/C (second compound 0.1 µM, first compound 0.3 µM) was 29.9%. For the same compound, the viability, T/C (second compound 0.1 µM, first compound 0.949 µM) was 30.1%, the viability, T/C (second compound 0.1 µM, first compound 3 µM) was 18.5% and the viability, T/C (second compound 0.316 µM, first compound 0.00949 µM) was 50.1%. The viability, T/C (second compound 0.316 µM, first compound 0.03 µM) was 32%, the viability, T/C (second compound 0.316 µM, first compound 0.0949 µM) was 22.1% and the viability, T/C (second compound 0.316 µM, first compound 0.3 µM) was 24.7%. It also gave a viability, T/C (second compound 0.316 µM, first compound 0.949 µM) of 23.5%, a viability, T/C (second compound 0.316 µM, first compound 3 µM) of 11.4% and a viability, T/C (second compound 1 µM, first compound 0.00949 µM) of 17.1%. It also gave a viability, T/C (second compound 1 µM, first compound 0.03 µM) of 16.9%, a viability, T/C (second compound 1 µM, first compound 0.0949 µM) of 21.7% and a viability, T/C (second compound 1 µM, first compound 0.3 µM) of 24.9%. For the same compound, the viability, T/C (second compound 1 µM, first compound 0.949 µM) was 19.1% and the viability, T/C (second compound 1 µM, first compound 3 µM) was 12.2%.

For `Cn1ncnc1[C@H]1c2n[nH]c(=O)c3cc(F)cc(c23)N[C@@H]1c1ccc(F)cc1` + Cc1c(S(C)(=O)=O)c(-c2cc(F)cc(N3CCN(c4ccc(NS(=O)(=O)c5ccc(NC(CCN6CCC(C(=O)OCCCP(=O)(O)O)CC6)CSc6ccccc6)c(S(=O)(=O)C(F)(F)F)c5)cc4)CC3)c2)c(-c2ccc(Cl)cc2)n1C(C)C, the IC50 (second compound 0.1 µM) was 1.85 nM, the IC50 (second compound 0.316 µM) was < 0.316 nM and the IC50 (second compound 1 µM) was < 0.316 nM. The IC50 (second compound 3.16 µM) was < 0.316 nM, the IC50 (second compound 10 µM) was < 0.316 nM and the viability, T/C (second compound 0.1 µM, first compound 0.000316 µM) was 50.8%. The viability, T/C (second compound 0.1 µM, first compound 0.001 µM) was 50.7%, the viability, T/C (second compound 0.1 µM, first compound 0.00316 µM) was 49.3% and the viability, T/C (second compound 0.1 µM, first compound 0.01 µM) was 30.7%. For the same compound, the viability, T/C [1] was 28.1%, the viability, T/C [2] was 35% and the viability, T/C (second compound 0.316 µM, first compound 0.000316 µM) was 46.2%. For the same compound, the viability, T/C (second compound 0.316 µM, first compound 0.001 µM) was 41%, the viability, T/C (second compound 0.316 µM, first compound 0.00316 µM) was 34.7% and the viability, T/C (second compound 0.316 µM, first compound 0.01 µM) was 38.1%. For the same compound, the viability, T/C [7] was 25%, the viability, T/C [8] was 30.3% and the viability, T/C (second compound 1 µM, first compound 0.000316 µM) was 38.2%. For the same compound, the viability, T/C (second compound 1 µM, first compound 0.001 µM) was 32.1%, the viability, T/C (second compound 1 µM, first compound 0.00316 µM) was 35% and the viability, T/C (second compound 1 µM, first compound 0.01 µM) was 34%. For the same compound, the viability, T/C [13] was 23.7%, the viability, T/C [14] was 21.6% and the viability, T/C (second compound 3.16 µM, first compound 0.000316 µM) was 38%. The viability, T/C (second compound 3.16 µM, first compound 0.001 µM) was 39.3%, the viability, T/C (second compound 3.16 µM, first compound 0.00316 µM) was 24.7% and the viability, T/C (second compound 3.16 µM, first compound 0.01 µM) was 18.6%. For the same compound, the viability, T/C [19] was 19.2%, the viability, T/C [20] was 18.8% and the viability, T/C (second compound 10 µM, first compound 0.000316 µM) was 32.6%. It also gave a viability, T/C (second compound 10 µM, first compound 0.001 µM) of 39.4%, a viability, T/C (second compound 10 µM, first compound 0.00316 µM) of 32.9% and a viability, T/C (second compound 10 µM, first compound 0.01 µM) of 29.5%. The viability, T/C [21] was 16.7% and the viability, T/C [22] was 15.7%.

`O=C(c1cc(Cc2n[nH]c(=O)c3ccccc23)ccc1F)N1CCN(C(=O)C2CC2)CC1` + Cc1c(S(C)(=O)=O)c(-c2cc(F)cc(N3CCN(c4ccc(NS(=O)(=O)c5ccc(NC(CCN6CCC(C(=O)OCCCP(=O)(O)O)CC6)CSc6ccccc6)c(S(=O)(=O)C(F)(F)F)c5)cc4)CC3)c2)c(-c2ccc(Cl)cc2)n1C(C)C was tested, and the IC50 (second compound 0.1 µM) was < 31.6 nM, the IC50 (second compound 0.316 µM) was < 31.6 nM and the IC50 (second compound 1 µM) was < 31.6 nM. For the same compound, the IC50 (second compound 3.16 µM) was < 31.6 nM, the IC50 (second compound 10 µM) was < 31.6 nM and the viability, T/C [1] was 40.4%. The viability, T/C [2] was 35.8%, the viability, T/C [3] was 53% and the viability, T/C [4] was 47.3%. For the same compound, the viability, T/C [5] was 25.8%, the viability, T/C [6] was 14.7% and the viability, T/C [7] was 39.7%. It also gave a viability, T/C [8] of 32.4%, a viability, T/C [9] of 28.6% and a viability, T/C [10] of 25.4%. It also gave a viability, T/C [11] of 23.5%, a viability, T/C [12] of 12.2% and a viability, T/C [13] of 32.6%. It also gave a viability, T/C [14] of 38.9%, a viability, T/C [15] of 24.2% and a viability, T/C [16] of 31.6%. It also gave a viability, T/C [17] of 20.4%, a viability, T/C [18] of 12.7% and a viability, T/C [19] of 31%. The viability, T/C [20] was 32.7%, the viability, T/C (second compound 3.16 µM, first compound 0.316 µM) was 22.9% and the viability, T/C (second compound 3.16 µM, first compound 1 µM) was 17.6%. It also gave a viability, T/C (second compound 3.16 µM, first compound 3.16 µM) of 14.7%, a viability, T/C (second compound 3.16 µM, first compound 10 µM) of 8.75% and a viability, T/C [21] of 20.1%. It also gave a viability, T/C [22] of 30.2%, a viability, T/C (second compound 10 µM, first compound 0.316 µM) of 24.1% and a viability, T/C (second compound 10 µM, first compound 1 µM) of 33.2%. The viability, T/C (second compound 10 µM, first compound 3.16 µM) was 20.3% and the viability, T/C (second compound 10 µM, first compound 10 µM) was 9.59%.
